Test results published in patent publication US4427587A, “Total synthesis of antitumor antibiotics BBM-2040A and BBM-2040B” (Bristol-Myers Company, priority 1982, dated 1984).
≈ marks a conversion by molar mass, not a printed value. Like-named read-outs stand apart in the source and are kept apart here.

What was measured:
Proteus vulgaris A9436 = experiment: MIC, serial two-fold agar dilution method; format: cell-based
Description: (§1) The minimum inhibitory concentration (MIC) of BBM-2040 was determined for a variety of gram-positive, gram-negative and acid-fast bacteria by the serial two-fold agar dilution method. Nutrient agar medium was used for gram-positive and gram-negative organisms and No. 1001 medium (3% glycerol, 0.3% sodium L-glutamate, 0.2% peptone, 0.31% Na2 HPO4, 0.1% KH2 PO4, 0.005% ammonium citrate, 0.001% MgSO4 and 1.5% agar) for acid-fast organisms.

Mycobacterium phlei D88 = experiment: MIC, serial two-fold agar dilution method; format: cell-based; conditions: Mycolicibacterium phlei
Description: as §1

Escherichia coli Juhl = experiment: MIC, serial two-fold agar dilution method; format: cell-based
Description: as §1

Escherichia coli NIHJ = experiment: MIC, serial two-fold agar dilution method; format: cell-based
Description: as §1

[1] = system: Streptococcus pyogenes PCI 1001; experiment: MIC, serial two-fold agar dilution method; format: cell-based; conditions: PCI1001
Description: as §1

Micrococcus flavus D12 = experiment: MIC, serial two-fold agar dilution method; format: cell-based
Description: as §1

[2] = system: Bacillus subtilis PCI 219; experiment: MIC, serial two-fold agar dilution method; format: cell-based; conditions: PCI219
Description: as §1

[3] = system: Pseudomonas aeruginosa A9930; experiment: MIC, serial two-fold agar dilution method; format: cell-based
Description: as §1

[4] = system: Staphylococcus aureus Smith; experiment: MIC, serial two-fold agar dilution method; format: cell-based
Description: as §1

[5] = system: Klebsiella pneumoniae D-11; experiment: MIC, serial two-fold agar dilution method; format: cell-based; conditions: D11
Description: as §1

[6] = system: Mycobacterium smegmatis 607; experiment: MIC, serial two-fold agar dilution method; format: cell-based; conditions: Mycolicibacterium smegmatis
Description: as §1

[7] = system: Streptococcus pyogenes A20201; experiment: MIC, serial two-fold agar dilution method; format: cell-based
Description: as §1

[8] = system: Staphylococcus aureus FDA 209P; experiment: MIC, serial two-fold agar dilution method; format: cell-based; conditions: FDA209P
Description: as §1

[9] = system: lymphocytic leukemia P388; experiment: antitumor activity against lymphocytic leukemia P388 in mice (Table 6); format: in vivo, mice (BDF1 strain); conditions: qd 1→9; for antitumor activity in P388 experiment (comparison): ip
Description: The antitumor activity of BBM-2040A and B was determined in mice (BDF1 strain) against lymphocytic leukemia P388. Each mouse was inoculated intraperitoneally with 10^6 cells of tumor. Graded doses of test compounds were administered to mice intraperitoneally 24 hours after the tumor implantation. The treatments were given once daily for 9 days (qd 1→9 schedule). Neothramycin was comparatively tested as a reference compound.
*ratio of median survival time of test and control animals
**circle indicates significant antitumor effect.

[10] = system: gram-positive, gram-negative and acid-fast bacteria; experiment: antibacterial activity / spectrum; format: cell-based; conditions: Streptococcus pyogenes, Micrococcus luteus, Micrococcus flavus and Mycobacterium strains
Description: as §1

lymphatic leukemia P388 = experiment: antitumor activity against P388 leukemia in mice, second experiment (Table 7); format: in vivo, male BDF1 mice; conditions: QD 1→9; for Effect MST % T/C: ≥ 125 significant; for antitumor activity in second P388 experiment (in words): i.p., epimer: 1 mg/kg/day, the highest dose tested
Description: In this experiment lymphatic leukemia P388 was implanted intraperitoneally into male BDF1 mice at an inoculum size of 10^6 cells per mouse. Test compounds were dissolved in 0.9% saline containing 10% dimethylsulfoxide. Graded doses of test compounds were administered to mice intraperitoneally 24 hours after the tumor implantation, and the treatment was continued once daily for 9 days.
Tumor inoculum: 10^6 ascites cells implanted i.p.
Treatment: QD 1→9, i.p.
Evaluation: MST = median survival time
Effect: % T/C = (MST treated/MST control) × 100
Criteria: % T/C ≥ 125 considered as significant antitumor activity

[11] = intraperitoneal; reported value; cited from earlier work
[12] = Mycobacterium phlei D88, No. 1001 medium, read-out: MIC
[13] = Escherichia coli Juhl, read-out: MIC
[14] = Escherichia coli NIHJ, read-out: MIC
[15] = Streptococcus pyogenes PCI 1001, read-out: MIC
[16] = Bacillus subtilis PCI 219, read-out: MIC
[17] = Staphylococcus aureus Smith, read-out: MIC
[18] = Klebsiella pneumoniae D-11, read-out: MIC
[19] = Mycobacterium smegmatis 607, No. 1001 medium, read-out: MIC
[20] = Staphylococcus aureus FDA 209P, read-out: MIC
[21] = benzene, chloroform and n-hexane
[22] = ethyl acetate, acetone and water
[23] = methanol ethanol, n-butanol and pyridine

## COc1cc2c(cc1O)N=C[C@@H]1C[C@H](O)CN1C2=O [BBM-2040B]
Proteus vulgaris A9436; read-out: MIC
  MIC: > 100 µg/mL
Mycobacterium phlei D88; [12]
  MIC: 100 µg/mL (≈ 381 µM)
Escherichia coli Juhl; [13]
  MIC: > 100 µg/mL
Escherichia coli NIHJ; [14]
  MIC: > 100 µg/mL
[1]; [15]
  MIC: 100 µg/mL (≈ 381 µM)
Micrococcus flavus D12; read-out: MIC
  MIC: 50 µg/mL (≈ 191 µM)
[2]; [16]
  MIC: > 100 µg/mL
[3]; read-out: MIC
  MIC: > 100 µg/mL
[4]; [17]
  MIC: > 100 µg/mL
[5]; [18]
  MIC: > 100 µg/mL
[6]; [19]
  MIC: 100 µg/mL (≈ 381 µM)
[7]; read-out: MIC
  MIC: 50 µg/mL (≈ 191 µM)
[8]; [20]
  MIC: > 100 µg/mL
[9]; 0.1 mg/kg/day ip
  T/C (%) in MST: 104%
[9]; 0.3 mg/kg/day ip
  T/C (%) in MST: 96%
[9]; 1 mg/kg/day ip
  T/C (%) in MST: 112%
[9]
  antitumor activity in P388 experiment (comparison): somewhat less active than BBM-2040A
solubility; [21]
  solubility: practically insoluble
solubility; [22]
  solubility: slightly soluble
solubility; [23]
  solubility: readily soluble
[10]
  antibacterial activity: weak antibacterial activity

## COc1cc2c(cc1O)N[C@H](OC)[C@@H]1C[C@H](O)CN1C2=O [BBM-2040A, 2(S),11(R),11a(S)-1,2,3,10,11,11a-Hexahydro-2,8-dihydroxy-7,11-dimethoxy-5H-pyrrolo-[2,1-c][1,4]benzodiazepin-5-one]
Proteus vulgaris A9436; read-out: MIC
  MIC: > 100 µg/mL
Mycobacterium phlei D88; [12]
  MIC: 100 µg/mL (≈ 340 µM)
Escherichia coli Juhl; [13]
  MIC: > 100 µg/mL
Escherichia coli NIHJ; [14]
  MIC: > 100 µg/mL
[1]; [15]
  MIC: 50 µg/mL (≈ 170 µM)
Micrococcus flavus D12; read-out: MIC
  MIC: 50 µg/mL (≈ 170 µM)
[2]; [16]
  MIC: > 100 µg/mL
[3]; read-out: MIC
  MIC: > 100 µg/mL
[4]; [17]
  MIC: > 100 µg/mL
[5]; [18]
  MIC: > 100 µg/mL
[6]; [19]
  MIC: 100 µg/mL (≈ 340 µM)
[7]; read-out: MIC
  MIC: 50 µg/mL (≈ 170 µM)
[8]; [20]
  MIC: > 100 µg/mL
[9]; 0.1 mg/kg/day ip
  T/C (%) in MST: 96%
[9]; 0.3 mg/kg/day ip
  T/C (%) in MST: 104%
[9]
  antitumor activity in P388 experiment (comparison): similarly active
solubility; [21]
  solubility: practically insoluble
solubility; [22]
  solubility: slightly soluble
solubility; [23]
  solubility: readily soluble
Lymphatic leukemia P388; 0.1 mg/kg/day i.p.
  Average weight change: +1.5 g
  MST: 12.0 days
  Effect MST % T/C: 100%
Lymphatic leukemia P388; 0.3 mg/kg/day i.p.
  Average weight change: +1.3 g
  MST: 14.0 days
  Effect MST % T/C: 117%
Lymphatic leukemia P388; 1 mg/kg/day i.p.
  MST: 16.0 days
  Effect MST % T/C: 133%
Lymphatic leukemia P388; 3 mg/kg/day i.p.
  Average weight change: +0.5 g
  MST: 17.0 days
  Survivors Day 5: 6/6
  Survivors Day 22: 0/6
  Effect MST % T/C: 142%
Lymphatic leukemia P388; 10 mg/kg/day i.p.
  Average weight change: -2.2 g
  MST: 19.5 days
  Survivors Day 5: 6/6
  Survivors Day 22: 1/6
  Effect MST % T/C: 163%
Lymphatic leukemia P388
  antitumor activity in second P388 experiment (in words): similarly active
[10]
  antibacterial activity: weak antibacterial activity

## COc1cc2c(cc1O)N[C@H](OC)[C@@H]1C[C@@H](O)CN1C2=O [2β-Hydroxy epimer of BBM-2040 A]
Lymphatic leukemia P388; 0.03 mg/kg/day i.p.
  Average weight change: +1.0 g
  MST: 10.5 days
  Survivors Day 5: 6/6
  Survivors Day 22: 0/6
  Effect MST % T/C: 88%
Lymphatic leukemia P388; 0.1 mg/kg/day i.p.
  Average weight change: +1.3 g
  MST: 11.0 days
  Survivors Day 5: 6/6
  Survivors Day 22: 0/6
  Effect MST % T/C: 92%
Lymphatic leukemia P388; 0.3 mg/kg/day i.p.
  Average weight change: +1.8 g
  MST: 11.0 days
  Survivors Day 5: 6/6
  Survivors Day 22: 0/6
  Effect MST % T/C: 92%
Lymphatic leukemia P388; 1 mg/kg/day i.p.
  Average weight change: +1.0 g
  MST: 12.0 days
  Survivors Day 5: 6/6
  Survivors Day 22: 0/6
  Effect MST % T/C: 100%
Lymphatic leukemia P388
  antitumor activity in second P388 experiment (in words): inactive

## COc1cc2c(cc1O)N=CC1CCC(O)N1C2=O (stereo not drawn) [Neothramycin]
Proteus vulgaris A9436
  MIC: 100 µg/mL (≈ 381 µM)
Mycobacterium phlei D88; D88
  MIC: > 100 µg/mL
Escherichia coli Juhl; Escherichia coli
  MIC: > 100 µg/mL
Escherichia coli NIHJ; Escherichia coli
  MIC: 50 µg/mL (≈ 191 µM)
[1]; Streptococcus pyogenes
  MIC: 100 µg/mL (≈ 381 µM)
Micrococcus flavus D12
  MIC: 100 µg/mL (≈ 381 µM)
[2]; Bacillus subtilis
  MIC: 50 µg/mL (≈ 191 µM)
[3]
  MIC: > 100 µg/mL
[4]; Staphylococcus aureus
  MIC: > 100 µg/mL
[5]; Klebsiella pneumoniae
  MIC: 100 µg/mL (≈ 381 µM)
[6]; 607
  MIC: > 100 µg/mL
[7]
  MIC: 50 µg/mL (≈ 191 µM)
[8]; Staphylococcus aureus
  MIC: > 100 µg/mL
[9]; 0.03 mg/kg/day ip
  T/C (%) in MST: 96%
[9]; 0.1 mg/kg/day ip
  T/C (%) in MST: 104%
[9]; 0.3 mg/kg/day ip
  T/C (%) in MST: 112%
[9]
  antitumor activity in P388 experiment (comparison): similarly active
[11]
  LD50: 20 to 30 mg/kg
Lymphatic leukemia P388; 0.1 mg/kg/day i.p.
  Average weight change: +1.0 g
  MST: 13.0 days
  Survivors Day 5: 6/6
  Survivors Day 22: 0/6
  Effect MST % T/C: 108%
Lymphatic leukemia P388; 0.3 mg/kg/day i.p.
  Average weight change: +0.8 g
  MST: 14.5 days
  Survivors Day 5: 6/6
  Survivors Day 22: 0/6
  Effect MST % T/C: 121%
Lymphatic leukemia P388; 1 mg/kg/day i.p.
  Average weight change: +0.5 g
  MST: 17.0 days
  Survivors Day 5: 6/6
  Survivors Day 22: 0/6
  Effect MST % T/C: 142%
Lymphatic leukemia P388; 3 mg/kg/day i.p.
  Average weight change: 0.0 g
  MST: 17.5 days
  Survivors Day 5: 6/6
  Survivors Day 22: 0/6
  Effect MST % T/C: 146%
Lymphatic leukemia P388
  antitumor activity in second P388 experiment (in words): similarly active
